This note sets out measurements from article PMC11648915, “Identification and development of TRPM4 antagonists to counteract neuronal excitotoxicity” (iScience, 2024).

The nature of data set [1]: Parallel Artificial Membrane Permeability Assay (PAMPA). The conditions noted are these: PAMPA; pH not given; read-out: PAMPA perm. Type of data set: in vitro ADME. How it is done: Parallel Artificial Membrane Permeability Assay (PAMPA) was performed using artificial lipid membrane layers to assess passive permeability of the test compound. Test compounds were diluted to 200 μM in system buffer at pH 5.0, 6.2 and 7.4. The solutions were filtered and 150 μL transferred to a High Sensitivity 96 well UV plate. This was analysed by UV as the reference plate. A 200 μL sample of the 200 μM solution was transferred to the ‘donor’ plate of the PAMPA pIon sandwich plate system. 200 μL of acceptor sink buffer was transferred to the ‘acceptor’ plate which had been previously treated with GIT-O lipid solution across the well filter. Donor and acceptor plates were sandwiched and kept in a humid environment at room temperature for 16 hours. On completion of the incubation the donor and acceptor plates were separated. 150 μL of solution was transferred from each of the donor and acceptor PAMPA sandwich plates into High Sensitivity 96 well UV plates for analysis by UV. at different time points. The concentration of the compound in the acceptor compartment was determined using mass spectrometry. The permeability coefficient (Papp) was calculated based on the rate of appearance of the compound in the acceptor compartment (nm/s).

For the next data set, the target named is T1, human TRPM5 (Homo sapiens, UniProt Q9NZQ8).
T1 sequence (Q9NZQ8 1-1165): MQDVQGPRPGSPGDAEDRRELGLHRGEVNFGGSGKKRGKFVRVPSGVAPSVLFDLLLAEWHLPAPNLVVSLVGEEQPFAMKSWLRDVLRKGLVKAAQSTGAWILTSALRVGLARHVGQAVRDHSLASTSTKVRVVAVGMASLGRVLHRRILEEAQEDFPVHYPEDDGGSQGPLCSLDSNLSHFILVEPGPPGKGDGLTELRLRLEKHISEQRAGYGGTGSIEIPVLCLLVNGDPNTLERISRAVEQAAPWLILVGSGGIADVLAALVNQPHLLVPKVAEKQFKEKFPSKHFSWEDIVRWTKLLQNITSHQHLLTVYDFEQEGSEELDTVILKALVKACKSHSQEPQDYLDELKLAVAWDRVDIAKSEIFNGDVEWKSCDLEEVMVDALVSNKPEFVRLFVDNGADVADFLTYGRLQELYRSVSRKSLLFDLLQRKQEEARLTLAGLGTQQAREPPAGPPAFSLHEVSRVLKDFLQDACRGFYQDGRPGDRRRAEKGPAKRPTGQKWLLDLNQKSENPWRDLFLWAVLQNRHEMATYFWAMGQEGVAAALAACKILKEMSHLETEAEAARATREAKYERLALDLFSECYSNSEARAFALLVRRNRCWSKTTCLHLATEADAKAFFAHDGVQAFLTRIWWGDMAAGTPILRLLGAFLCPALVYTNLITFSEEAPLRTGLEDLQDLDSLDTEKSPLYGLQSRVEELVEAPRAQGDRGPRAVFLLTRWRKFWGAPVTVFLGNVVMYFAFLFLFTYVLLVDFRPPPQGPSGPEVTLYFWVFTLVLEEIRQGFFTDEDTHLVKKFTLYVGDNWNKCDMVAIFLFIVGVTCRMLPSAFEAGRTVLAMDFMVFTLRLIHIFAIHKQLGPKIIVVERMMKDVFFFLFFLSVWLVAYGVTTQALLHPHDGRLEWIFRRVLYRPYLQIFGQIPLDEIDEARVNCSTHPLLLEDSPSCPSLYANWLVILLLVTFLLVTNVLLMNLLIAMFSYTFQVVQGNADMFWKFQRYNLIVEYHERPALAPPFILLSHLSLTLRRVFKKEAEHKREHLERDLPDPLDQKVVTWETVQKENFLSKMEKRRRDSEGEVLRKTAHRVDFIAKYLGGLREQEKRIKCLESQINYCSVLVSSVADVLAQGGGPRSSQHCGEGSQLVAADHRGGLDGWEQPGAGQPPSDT
Nature of the data set: QPatch automated patch clamp on TRPM5-expressing HEK293 cells. It is filed as cell-based. The following applies: hsTRPM5-expressing HEK293 cells. The text has this: The counter screening phase involved the inclusion of hsTRPM5-expressing HEK293 cells, as closest homologue, and the parental HEK293 cell line to evaluate selectivity. […] Based on categorization of biological activity, mass spectrometry quality control, and aspects of medicinal chemistry, we prioritized 144 selective hsTRPM4 compounds. These compounds were then subjected to automated patch clamp electrophysiology measurements (QPatch[58]) to evaluate their activity profiles and IC50 values (Figures 1A, S1, and S2).
QPatchHTX, an automated electrophysiology platform, was used in single hole mode. One day before use human TRPM4- or TRPM5-expressing HEK293 cells were seeded in a T75 flask at a density of 53k cells per cm^2 and at passages < 23. For QPatch assays, cells were harvested and re-suspended in SFM (Gibco, 11686029). The extracellular solution was (in mM): CaCl2 (7), MgCl2 (2), KCl (5), HEPES (10), NaCl (70), NMDG (70); pH 7.4 with NaOH. The intracellular solution was (in mM): HEPES (10), NMDG (100), NaCl (50), EGTA (20), MgCl2 (1), CaCl2 (21); pH 7.2 with HCl. After break-in, channels were consistently open and current through the channels could be observed at a voltage ramp from –100 mV to +100 mV over 500 ms. This protocol was repeated every 7 seconds. After saline and vehicle application, the channel was desensitized and residual current was used as baseline. FFA was used as reference compound and applied cumulatively with each concentration incubating at a minimum of 20 voltage protocol runs (140 seconds) with the current after addition of FFA being calculated as full block. […] Each compound was measured at least 3 time independently.
In general terms: Patch clamp records ionic current or voltage across a cell membrane.

Data set [2] can be described thus: Microsome clearance (human). It is filed as in vitro ADME. The following applies: human liver microsomes, 45 min, NADPH, read-out: Microsomes (h) clearance (converted). As for the experimental part: (§1) Human or mouse liver microsomes were incubated with the test compound at a concentration of 1 μM for 45 min in the presence of cofactor (NADPH in excess). Samples were collected at various time points, and % remaining of test compound was determined using mass spectrometry (LC-MS/MS) to calculate hepatic clearance rate (L/h/kg).
A general note: Liver microsomes are vesicles of endoplasmic reticulum, rich in cytochrome P450 enzymes.

A short description of data set [3]: Microsome clearance (mouse). Type of data set: in vitro ADME. The following applies: mouse liver microsomes, 45 min, NADPH. How it is done: as §1
In another data set the target is T2, CYP 2C19 (Homo sapiens, UniProt P33261).
T2 construct: purchased BD Gentest
Nature of the data set: CYP inhibition assay 2C19. It is filed as in vitro ADME. How it is done:
(§2) The half-maximal inhibitory concentration (IC50) for cytochrome P450 (CYP) enzymes was determined using an in vitro enzyme inhibition assay. Recombinant CYP enzymes or human liver microsomes from BD Gentest, in 0.1 M phosphate buffer pH 7.4, containing native CYP enzymes were incubated with the test compound at various concentrations (1, 3, 10 and 30 μM) and containing 0.5% DMSO and 0.1% BSA final concentrations. 1 mM of NADPH cofactor was added and the reaction was started by a rapid increase of temperature until 37°C.

For another data set, the target named is T3, CYP2D6 (Homo sapiens, UniProt P10635).
T3 construct: purchased BD Gentest
In words: CYP inhibition assay 2D6. Type of data set: in vitro ADME. As for the experimental part: as §2

The nature of data set [4]: Caco-2 permeability assay. Type of data set: in vitro ADME. The conditions noted are these: human, heading: Caco-2 perm., direction not given. As for the experimental part:
Caco-2 permeability was evaluated using a cell-based assay with Caco-2 cells cultured on permeable membrane inserts. The test compound was added at 10 μM to the apical (donor) compartment, and samples were collected from the basolateral (receiver) compartment at 120 min. The test compound was also added at 10 μM to the basolateral (donor) compartment, and samples were collected from the apical (receiver) compartment at 120 min. The amount of the compound in both compartments was measured using mass spectrometry (LC-MS/MS). The permeability coefficient (Papp, nm/s) apical to basolateral and basolateral to apical, and an efflux ratio were calculated.

For orientation: IC50 means the concentration at which inhibition is half-maximal. The low end stands for inhibition by little substance, the high end for a need for much substance.

T3 sequence (P10635 whole entry): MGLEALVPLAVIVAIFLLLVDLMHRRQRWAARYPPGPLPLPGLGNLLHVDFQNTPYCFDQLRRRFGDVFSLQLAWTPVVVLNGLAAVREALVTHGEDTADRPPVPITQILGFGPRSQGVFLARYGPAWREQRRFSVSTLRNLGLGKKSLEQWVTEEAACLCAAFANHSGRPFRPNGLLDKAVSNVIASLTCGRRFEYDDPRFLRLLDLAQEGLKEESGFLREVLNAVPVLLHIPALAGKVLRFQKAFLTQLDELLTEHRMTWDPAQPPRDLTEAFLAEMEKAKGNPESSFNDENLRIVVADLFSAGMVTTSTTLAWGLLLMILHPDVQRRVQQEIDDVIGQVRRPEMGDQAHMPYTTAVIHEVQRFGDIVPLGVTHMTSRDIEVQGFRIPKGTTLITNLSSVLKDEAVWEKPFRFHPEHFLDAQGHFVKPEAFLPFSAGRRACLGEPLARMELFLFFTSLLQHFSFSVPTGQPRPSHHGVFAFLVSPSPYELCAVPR
T2 sequence (P33261 whole entry): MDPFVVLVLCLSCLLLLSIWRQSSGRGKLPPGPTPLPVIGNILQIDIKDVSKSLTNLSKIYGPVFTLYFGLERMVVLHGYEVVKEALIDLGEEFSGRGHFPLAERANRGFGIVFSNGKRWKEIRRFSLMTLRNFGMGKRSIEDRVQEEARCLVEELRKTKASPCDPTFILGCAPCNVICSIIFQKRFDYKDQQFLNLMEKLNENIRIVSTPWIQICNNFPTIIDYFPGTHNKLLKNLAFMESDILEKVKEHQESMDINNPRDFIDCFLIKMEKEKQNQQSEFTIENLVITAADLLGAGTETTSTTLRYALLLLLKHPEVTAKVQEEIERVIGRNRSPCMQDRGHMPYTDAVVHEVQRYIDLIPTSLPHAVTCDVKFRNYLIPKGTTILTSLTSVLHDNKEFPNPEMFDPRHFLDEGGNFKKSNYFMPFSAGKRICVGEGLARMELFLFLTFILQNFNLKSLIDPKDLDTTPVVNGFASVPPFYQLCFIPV

For `CNc1cccc(-c2ccccc2NCc2nc3ccccc3o2)c1` [CMP462], in data set [1], the Papp at 16 h, 200 μM stood at 25 ×10⁻⁶ cm/s. Moreover, the IC50 on human TRPM5 is more than 30 µM; against CYP 2C19, 4 µM; against CYP2D6, more than 50 µM. The results for the CLint scaled at 1 μM in data set [2] and in data set [3] were 302 mL/min/kg and 900 mL/min/kg, respectively. The molecule also returned a Papp at 120 min, 10 μM in data set [4] of 233 nm/s.
